The record followed here is article PMC9506587 (Toxins, 2022).

In data set [1] the test system is recombinant protein USTB-05-C (MlrC). The settings on record: pH 7.3.
Data set [2] shares this test system. Nature of the data set: in vitro. The settings on record: Sphingopyxis sp. USTB-05, isolated enzyme, pH 7.3.

For the molecule `C/C=C(/C(=O)N[C@@H](C(=O)O)[C@H](C)C(=O)N[C@@H](CCCNC(=N)N)C(=O)O)N(C)C(=O)CC[C@@H](NC(=O)[C@@H](C)[C@@H](N)/C=C/C(C)=C/[C@H](C)[C@H](Cc1ccccc1)OC)C(=O)O` [linear NOD], the “time to complete removal (degradation) of linear NOD by purified MlrC” value in data set [1] was no more than 6 h. In data set [2], the metabolised at 4 h was roughly 98.7%.
